BindingDB's records for doi:10.1021/acs.jnatprod.9b00663 (University of Utah, 2019)

Biological target: Low molecular weight phosphotyrosine protein phosphatase (Homo sapiens) (UniProt P24666)
Test: Inhibition of LMWPTP (unknown origin) using DiFMUP as substrate incubated for 30 mins followed by substrate addition at pH 6.5 by standard phosphatase assay based fluorescence analysis

Low molecular weight phosphotyrosine protein phosphatase (Homo sapiens), sequence (P24666 whole entry, looked up): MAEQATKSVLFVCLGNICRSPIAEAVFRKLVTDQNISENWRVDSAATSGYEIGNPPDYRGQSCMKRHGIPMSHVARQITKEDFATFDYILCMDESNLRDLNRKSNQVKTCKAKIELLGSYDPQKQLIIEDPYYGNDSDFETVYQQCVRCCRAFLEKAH

SMILES | IC50 [µM]
COc1c(C=O)c2c(c3c1CC(C)(C)C3)C(=O)OC(O)C2 (configuration not stated) [3-Hydroxy-6-methoxy-8,8-dimethyl-1-oxo-1,3,4,7,8,9-hexahydro-cyclopenta[h]isochromene-5-carbaldehyde] | > 100
CC1(C)Cc2c(O)c(C=O)c3c(c2C1)C(=O)OC(O)C3 (configuration not stated) [Illudalic acid] | > 100
